37 molecules from patent publication US8163909B2, “Substituted hydroxyethyl amine compounds as beta-secretase modulators and methods of use” (Amgen Inc., priority 2007, dated 2012) can be followed below.

Read-outs that look alike come from different tables or passages of the source.

For experiment [1], the target named is Beta Secretase enzyme (BACE) (Homo sapiens, UniProt P56817). The experiment can be described thus: In vitro enzymatic BACE FRET (fluorescence resonance energy transfer) assay.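 Also: fluorescence read after 1 h with 50 nM quenched peptide substrate spanning the BACE cleavage site, in pH 4.2 acetate buffer containing 10% DMSO and nonionic detergent.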 The format is biochemical.
Sequence of Beta Secretase enzyme (BACE) (P56817 46-501): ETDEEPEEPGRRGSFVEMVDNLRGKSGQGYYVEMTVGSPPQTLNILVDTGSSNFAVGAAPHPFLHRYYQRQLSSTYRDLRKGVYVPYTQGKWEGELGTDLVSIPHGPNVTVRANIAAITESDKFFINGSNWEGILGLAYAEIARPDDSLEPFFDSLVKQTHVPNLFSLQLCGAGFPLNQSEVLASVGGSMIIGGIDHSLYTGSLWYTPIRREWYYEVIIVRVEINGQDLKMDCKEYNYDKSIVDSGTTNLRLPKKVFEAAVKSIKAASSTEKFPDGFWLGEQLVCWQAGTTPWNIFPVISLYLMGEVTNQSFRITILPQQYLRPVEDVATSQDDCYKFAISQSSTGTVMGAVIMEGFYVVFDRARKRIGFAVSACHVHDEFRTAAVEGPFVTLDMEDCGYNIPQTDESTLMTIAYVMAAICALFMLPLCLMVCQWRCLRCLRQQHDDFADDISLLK
In experiment [2] the test system is Aβ40 in conditioned medium of cells stably expressing Amyloid Precursor Protein (APP). The experiment is described as follows: In vitro BACE cell-based assay (Aβ40 in conditioned medium, sandwich ELISA).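 Also: compounds added as a dilution series, secreted peptide quantified by europium time-resolved fluorescence readout, potency fitted from percent of control versus compound concentration.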 On the technique in general: ELISA stands for enzyme-linked immunosorbent assay.
The mark [3] stands for this setting: BACE enzyme FRET assay, read-out: BACE1 FRET assay (IC50).
The mark [4] stands for this setting: Homo sapiens, HEK293, HEK cells, cell-based assay, read-out: HEK cell assay (IC50).
Where [5] appears, read: BACE enzyme assay, read-out: BACE1 FRET assay (IC50).
Where [6] appears, read: Table 1, read-out: BACE1 FRET assay.
Setting [7] is: Homo sapiens, HEK293, Table 1, HEK cells, read-out: HEK cell assay.
Where [8] appears, read: HEK cells, cell-based assay, read-out: HEK cell assay (IC50).

Consider `CC(=O)NC(Cc1ccc(F)cc1)C(O)CNC1CC2(CC(CO)C2)Oc2ncc(CC(C)(C)C)cc21` [compound 259, N-((1S,2R)-3-(((1s,3R,4′S)-6′-(2,2-dimethylpropyl)-3-(hydroxymethyl)-3′,4′-dihydrospiro[cyclobutane-1,2′-pyrano[2,3-b]pyridin]-4′-yl)amino)-1-((4-fluorophenyl)methyl)-2-hydroxypropyl)acetamide], for which the results for the IC50 in experiment [1] (setting [3]) and in experiment [2] (setting [4]) were 16 µM and 3.33 µM, respectively.
With `CC(=O)N[C@@H](Cc1cc(Cl)c2c(c1)OCO2)[C@H](O)CN[C@H]1CC2(CCC2)Oc2ncc(CC(C)(C)C)cc21` [compound 207], the IC50 in experiment [1] (setting [3]) was 0.00663 µM; in experiment [2] (setting [4]) it was 0.0142 µM.
`CC(=O)N[C@@H](Cc1ccc(F)cc1)[C@H](O)CN[C@H]1CC2(CCC2)Oc2cnc(CC(C)(C)F)cc21` [compound 254]: the IC50 in experiment [1] (setting [3]) is 0.178 µM; in experiment [2] (setting [4]) it was 0.152 µM.
On the same counts, the results for `CC(=O)N[C@@H](Cc1ccc(F)cc1)[C@H](O)CN[C@H]1CC2(CCC2)Oc2ncc(CC(C)(F)F)cc21` [compound 274] are 0.0297 µM and 0.0727 µM.
`CO[C@H](C)C(=O)N[C@@H](Cc1cccc(F)c1)[C@H](O)CN[C@H]1CC2(CCC2)Oc2cnc(CC(C)(C)F)cc21` [compound 253]: the results for the IC50 in experiment [1] (setting [3]) and in experiment [2] (setting [4]) were 0.0362 µM and 0.0744 µM, respectively.
On to `CC(C)(C)Cc1cnc2c(c1)[C@@H](NC[C@@H](O)[C@H](Cc1cc(F)cc(F)c1)NC(=O)C(F)(F)Cl)CC1(CCC1)O2` [compound 96], for which the values for the IC50 in experiment [1] (setting [5]) and in experiment [2] (setting [4]) were 0.00023 µM and 0.0432 µM, respectively.
For `COCC(=O)N[C@@H](Cc1ccnc(C(F)(F)F)c1)[C@H](O)CN[C@H]1CC2(CCC2)Oc2ncc(CC(C)(C)C)cc21` [compound 163], the IC50 stood at 0.0269 µM in experiment [1] (setting [5]) and 0.0359 µM in experiment [2] (setting [4]).
Consider `CC(C)Cc1cnc2c(c1)[C@@H](NC[C@@H](O)[C@H](Cc1ccc3c(c1)OCO3)NC(=O)[C@H](C)F)CC1(CCC1)O2` [compound 601], for which the IC50 in experiment [1] (read-out: BACE1 FRET assay (IC50)) was determined as 0.044 µM; in experiment [2] (Homo sapiens, HEK293, HEK cells, read-out: HEK cell assay (IC50)) it was 0.062 µM.
`CC(=O)N[C@@H](Cc1ccc2c(c1)OCO2)[C@H](O)CN[C@H]1CC2(CCC2)Oc2nc(F)c(CC(C)C)cc21` [compound 338]: the IC50 in experiment [1] (setting [6]) came to 0.109 µM; in experiment [2] (setting [7]) it was 0.252 µM.
For `CC(C)(C)Cc1cnc2c(c1)[C@@H](NC[C@@H](O)[C@H](Cc1ccc3c(c1)OCO3)NC(=O)C(C)(Cl)Cl)CC1(CCC1)O2` [compound 98], the values for the IC50 in experiment [1] (setting [5]) and in experiment [2] (setting [8]) were 0.54 µM and 0.767 µM, respectively.
For the molecule `CO[C@H](C)C(=O)N[C@@H](Cc1ccc2c(c1)OCO2)[C@H](O)CN[C@H]1CC2(CCC2)Oc2ncc(CCC(F)(F)F)cc21` [compound 194], the values for the IC50 in experiment [1] (setting [3]) and in experiment [2] (setting [4]) were 1.07 µM and 1.52 µM, respectively.
For `COCC(=O)N[C@@H](Cc1cccc(F)c1)[C@H](O)CN[C@H]1CC2(CCC2)Oc2ncc(CC(C)(C)C(F)(F)F)cc21` [compound 73], the IC50 in experiment [1] (setting [5]) came to 0.016 µM; in experiment [2] (setting [4]), 0.0531 µM.
For the molecule `CO[C@H](C)C(=O)N[C@@H](Cc1ccc2c(c1)OCO2)[C@H](O)CN[C@H]1CC2(CCC2)Oc2ncc(C[C@@H](C)C(F)(F)F)cc21` [compound 342], the results for the IC50 in experiment [1] (setting [6]) and in experiment [2] (setting [7]) were 0.175 µM and 0.343 µM, respectively.
With `CC(C)(C)Cc1cnc2c(c1)[C@@H](NC[C@@H](O)[C@H](Cc1cc(F)cc(F)c1)NC(=O)C(C)(Cl)Cl)CC1(CCC1)O2` [compound 97], the IC50 in experiment [1] (setting [5]) was determined as 0.0138 µM; in experiment [2] (setting [4]), 0.385 µM.
On to `CC(=O)N[C@@H](Cc1ccc(F)c(F)c1)[C@H](O)CN[C@H]1CC2(CCC2)Oc2ncc([C@H](F)C(C)(C)C)cc21` [compound 177], for which the IC50 in experiment [1] (setting [5]) was found to be 0.00217 µM; in experiment [2] (setting [4]), 0.00934 µM.
`CO[C@H](C)C(=O)N[C@@H](Cc1ccc2c(c1)OCO2)[C@H](O)CN[C@H]1CC2(CCC2)Oc2ncc(CC(C)C)cc21` [compound 335]: the IC50 stood at 0.0383 µM in experiment [1] (setting [6]) and 0.0765 µM in experiment [2] (setting [7]).
For `COCCNc1nc(CC(C)(C)C)cc2c1OC1(CCC1)C[C@@H]2NC[C@@H](O)[C@H](Cc1ccc(F)cc1)NC(=O)COC` [compound 150], the values for the IC50 in experiment [1] (setting [5]) and in experiment [2] (setting [4]) were 0.0479 µM and 0.0226 µM, respectively.
`COCC(=O)N[C@@H](Cc1cccc(F)c1)[C@H](O)CN[C@H]1C[C@]2(C[C@H](O)C2)Oc2ncc(CC(C)(C)C)cc21` [compound 232, N-((1S,2R)-3-(((1s,3S,4′S)-6′-(2,2-dimethylpropyl)-3-hydroxy-3′,4′-dihydrospiro[cyclobutane-1,2′-pyrano[2,3-b]pyridin]-4′-yl)amino)-1-((3-fluorophenyl)methyl)-2-hydroxypropyl)-2-(methyloxy)acetamide]: the values for the IC50 in experiment [1] (setting [3]) and in experiment [2] (setting [8]) were 0.00234 µM and 0.00327 µM, respectively.
Turning to `COCC(=O)N[C@@H](Cc1cccc(F)c1)[C@H](O)CN[C@H]1CC2(CCC2)Oc2c(F)cc(CC(C)(C)C)cc21` [compound 221], the IC50 worked out at 0.0137 µM in experiment [1] (setting [3]) and 0.0444 µM in experiment [2] (setting [4]).
Consider `CC(=O)N[C@@H](Cc1ccc(F)cc1)[C@H](O)CN[C@H]1CC2(CCC2)Oc2ncc(OC(C)(F)F)cc21` [compound 146], for which the IC50 is 0.421 µM in experiment [1] (setting [5]) and 1.25 µM in experiment [2] (setting [4]).
Turning to `CO[C@H](C)C(=O)N[C@@H](Cc1ccc2c(c1)OCO2)[C@H](O)CN[C@H]1CC2(CCC2)Oc2ncc(CC(C)(F)F)cc21` [compound 279], the IC50 in experiment [1] (setting [3]) was found to be 0.126 µM; in experiment [2] (setting [4]) it was 0.108 µM.
In the case of `CC(=O)N[C@@H](Cc1ccc(F)cc1)[C@H](O)CN[C@H]1C[C@]2(CC[C@@H]2O)Oc2ncc(CC(C)(C)C)cc21` [compound 117], the IC50 came out at 0.00785 µM in experiment [1] (setting [5]) and 0.0336 µM in experiment [2] (setting [4]).
As to `CC(=O)N[C@@H](Cc1ccc2c(c1)OCO2)[C@H](O)CN[C@H]1CC2(CCC2)Oc2cnc(C(F)(F)F)cc21` [compound 265], the IC50 came to 9.6 µM in experiment [1] (setting [3]) and 0.388 µM in experiment [2] (setting [4]).
On to `CC(=O)N[C@@H](Cc1ccccc1)[C@H](O)CN[C@H]1CC2(CCC2)Oc2c1cc(CC(C)(C)C)nc2N1CCC1` [compound 128], for which the IC50 in experiment [1] (setting [5]) amounted to 0.0332 µM; in experiment [2] (setting [4]), 0.016 µM.
Regarding `COC(C)C(=O)NC(Cc1ccc2c(c1)OCO2)C(O)CNC1CC2(CC(C)C2)Oc2ncc(CC(C)C)cc21` [compound 134, (2R)—N-((1S,2R)-1-(1,3-benzodioxol-5-ylmethyl)-2-hydroxy-3-(((1s,3R,4′S)-3-methyl-6′-(2-methylpropyl)-3′,4′-dihydrospiro[cyclobutane-1,2′-pyrano[2,3-b]pyridin]-4′-yl)amino)propyl)-2-(methyloxy)propanamide], the IC50 in experiment [1] (setting [5]) turned out to be 0.0272 µM; in experiment [2] (setting [4]), 0.192 µM.
In the case of `COCC(=O)N[C@@H](Cc1ccc2c(c1)OCO2)[C@H](O)CN[C@H]1CC2(CCC2)Oc2ncc(CC(C)(C)C)cc21` [compound 282], the IC50 came to 0.00613 µM in experiment [1] (setting [3]) and 0.0168 µM in experiment [2] (setting [4]).
On the same counts, the results for `CC(=O)N[C@@H](Cc1cccc(F)c1)[C@H](O)CN[C@H]1CC2(CCC2)Oc2ccc(CC(C)(C)F)cc21` [compound 201, N-((1S,2R)-3-(((4S)-6-(2-fluoro-2-methylpropyl)-3,4-dihydrospiro[chromene-2,1′-cyclobutan]-4-yl)amino)-1-((3-fluorophenyl)methyl)-2-hydroxypropyl)acetamide] are 0.0201 µM and 0.0768 µM.
Take `CO[C@H](C)C(=O)N[C@@H](Cc1ccc2c(c1)OCO2)[C@H](O)CN[C@H]1CC2(CCC2)Oc2ncc([C@H](F)C(C)(C)C)cc21` [compound 330]: the values for the IC50 in experiment [1] (setting [6]) and in experiment [2] (setting [7]) were 0.0221 µM and 0.0439 µM, respectively.
For `CNc1nc(CC(C)(C)C)cc2c1OC1(CCC1)C[C@@H]2NC[C@@H](O)[C@H](Cc1cccc(F)c1)NC(=O)[C@@H](C)OC` [compound 139], the IC50 in experiment [1] (setting [5]) was found to be 0.042 µM; in experiment [2] (setting [4]) it was 0.00899 µM.
For `COCC(=O)N[C@@H](Cc1ccc2c(c1)OC(C)(C)O2)[C@H](O)CN[C@H]1CC2(CCC2)Oc2ncc(CC(C)(C)C)cc21` [compound 293], the IC50 in experiment [1] (setting [3]) was determined as 0.484 µM; in experiment [2] (setting [4]) it was 0.333 µM.
In the case of `CCC(=O)N[C@@H](Cc1ccc2c(c1)OCO2)[C@H](O)CN[C@H]1CC2(CCC2)Oc2ncc(CC(C)(C)C)cc21` [compound 828], the IC50 in experiment [1] (BACE enzyme assay, IC50's in uM, read-out: BACE1 FRET assay) came to 0.012 µM; in experiment [2] (Homo sapiens, HEK293, HEK cell-based assay, IC50's in uM, read-out: HEK cell assay) it was 0.014 µM.
With `COCCC(=O)N[C@@H](Cc1ccc2c(c1)OCO2)[C@H](O)CN[C@H]1CC2(CCC2)Oc2ncc(CC(C)(C)C)cc21` [compound 197], the results for the IC50 in experiment [1] (setting [3]) and in experiment [2] (setting [4]) were 0.0209 µM and 0.0219 µM, respectively.
On to `CO[C@H](C)C(=O)N[C@@H](Cc1ccc2c(c1)OCO2)[C@H](O)CN[C@H]1CC2(CCC2)Oc2c1cc(CC(C)(C)C)nc2Cl` [compound 131], for which the IC50 in experiment [1] (setting [5]) turned out to be 0.0268 µM; in experiment [2] (setting [4]), 0.376 µM.
For `CC(C)(C)Cc1cnc2c(c1)[C@@H](NC[C@@H](O)[C@H](Cc1cccc(C#N)c1)NC(=O)[C@@H](O)C(F)(F)F)CC1(CCC1)O2` [compound 62] the same measures were 0.00401 µM and 0.00983 µM.
In the case of `COC(C)C(=O)NC(Cc1ccc2c(c1)OCO2)C(O)CNC1CC2(CC(O)C2)Oc2cnccc21` [compound 243, (2R)—N-((1S,2R)-1-(1,3-benzodioxol-5-ylmethyl)-2-hydroxy-3-(((1s,3S,4′S)-3-hydroxy-3′,4′-dihydrospiro[cyclobutane-1,2′-pyrano[2,3-c]pyridin]-4′-yl)amino)propyl)-2-(methyloxy)propanamide], the IC50 in experiment [1] (setting [3]) turned out to be 36.1 µM; in experiment [2] (setting [8]), 3.33 µM.
`COCC(=O)N[C@@H](Cc1cccc(F)c1)[C@H](O)CN[C@H]1CC2(CCC2)Oc2cnc(CC(C)(C)F)cc21` [compound 252]: the values for the IC50 in experiment [1] (setting [3]) and in experiment [2] (setting [4]) were 0.0236 µM and 0.0538 µM, respectively.
Consider `CO[C@@H](C)C(=O)N[C@@H](Cc1ccc(F)cc1)[C@H](O)CN[C@H]1CC2(CCC2)Oc2c(F)cc(CC(C)(C)C#N)cc21` [compound 173], for which the figures for the IC50 in experiment [1] (setting [5]) and in experiment [2] (setting [4]) were 0.0364 µM and 0.0546 µM, respectively.
